Experimental data reported in the Kinase Knowledgebase extract (Sharma et al. 2016).

Assays:
[1] = target: PIK3CA (UniProt P42336); experiment: PI 3-Kinase Inhibition; conditions: for inhibition: concentration not given here
[2] = test system: PIK3CA (rat); experiment: Hexosaminidase Secretion Inhibition (RBL-2H3 cells); conditions: rbl2h3

Sequence of PIK3CA (P42336 whole entry, looked up): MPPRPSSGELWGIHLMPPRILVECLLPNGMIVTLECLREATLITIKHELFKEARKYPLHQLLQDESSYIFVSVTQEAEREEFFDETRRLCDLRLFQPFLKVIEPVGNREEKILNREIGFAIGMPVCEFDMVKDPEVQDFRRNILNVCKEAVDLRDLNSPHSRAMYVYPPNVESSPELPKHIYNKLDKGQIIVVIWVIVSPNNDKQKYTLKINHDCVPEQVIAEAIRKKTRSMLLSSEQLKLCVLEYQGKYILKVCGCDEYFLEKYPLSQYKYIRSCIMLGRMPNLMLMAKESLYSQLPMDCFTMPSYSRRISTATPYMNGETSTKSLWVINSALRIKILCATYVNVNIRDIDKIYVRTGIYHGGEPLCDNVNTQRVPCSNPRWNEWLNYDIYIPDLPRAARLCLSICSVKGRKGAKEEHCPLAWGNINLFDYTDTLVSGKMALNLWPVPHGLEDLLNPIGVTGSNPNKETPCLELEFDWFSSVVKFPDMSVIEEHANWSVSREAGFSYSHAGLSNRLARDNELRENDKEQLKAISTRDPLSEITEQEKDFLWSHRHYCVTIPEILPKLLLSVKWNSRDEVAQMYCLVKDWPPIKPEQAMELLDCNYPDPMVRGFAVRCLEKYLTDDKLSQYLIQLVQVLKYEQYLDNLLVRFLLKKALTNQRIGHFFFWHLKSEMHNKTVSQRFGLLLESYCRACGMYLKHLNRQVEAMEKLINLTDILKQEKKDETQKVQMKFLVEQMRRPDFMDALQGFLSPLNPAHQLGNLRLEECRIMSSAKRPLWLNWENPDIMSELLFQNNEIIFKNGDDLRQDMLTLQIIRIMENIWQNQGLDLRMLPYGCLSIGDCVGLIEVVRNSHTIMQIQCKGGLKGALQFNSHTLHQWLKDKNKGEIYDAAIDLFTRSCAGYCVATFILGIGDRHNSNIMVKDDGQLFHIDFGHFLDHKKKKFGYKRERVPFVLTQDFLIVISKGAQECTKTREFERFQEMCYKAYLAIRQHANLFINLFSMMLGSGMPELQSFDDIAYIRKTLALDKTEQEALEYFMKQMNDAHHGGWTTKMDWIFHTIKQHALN

Structure (SMILES): CCCCCCCCCCCCCCCC(=O)OC[C@@H](COP(=O)(O)O[C@H]1[C@H](O)[C@@H](O)[C@H](O)[C@@H](CI)[C@H]1O)OC(=O)CCCCCCCCCCCCCCC
- inhibition [1]: 60%

Structure (SMILES): CCCCCCCCCCCCCCCC(=O)OC[C@@H](COP(=O)(O)O[C@H]1[C@H](O)[C@@H](O)[C@H](O)[C@@H](CN)[C@H]1O)OC(=O)CCCCCCCCCCCCCCC
- IC50 [1]: 20 µM
- inhibition [1]: > 98%
- IC50 [2]: 17 µM

Structure (SMILES): CCCCCCCCCCCCCCCC(=O)OC[C@@H](COP(=O)(O)O[C@H]1[C@H](O)[C@@H](O)[C@H](O)[C@@H](CF)[C@H]1O)OC(=O)CCCCCCCCCCCCCCC
- inhibition [1]: 60%

Structure (SMILES): CCCCCCCCCCCCCCCC(=O)OC[C@@H](COP(=O)(O)O[C@H]1[C@H](O)[C@@H](O)[C@H](O)[C@@H](CBr)[C@H]1O)OC(=O)CCCCCCCCCCCCCCC
- inhibition [1]: 60%

Structure (SMILES): O=c1cc(N2CCOCC2)oc2c(-c3ccccc3)cccc12
- IC50 [2]: 1.8 µM

Structure (SMILES): CCCCCCCCCCCCCCCC(=O)OC[C@@H](COP(=O)(O)O[C@H]1[C@H](O)[C@@H](O)[C@H](O)[C@@H](CCl)[C@H]1O)OC(=O)CCCCCCCCCCCCCCC
- inhibition [1]: 60%

Structure (SMILES): CCCCCCCCCCCCCCCC(=O)OC[C@@H](COP(=O)(O)O[C@H]1[C@H](O)[C@@H](O)[C@H](O)[C@@H](CO)[C@H]1O)OC(=O)CCCCCCCCCCCCCCC
- IC50 [1]: 35 µM
- inhibition [1]: 85%
